Assay results from patent publication US10485235B2, “Aryloxypyrimidinyl ethers as herbicides” (FMC Corporation, priority 2015, dated 2019).

Tests used:
Assay type in all cases: in vivo
[1] = system: pigweed (Amaranthus retroflexus); assay: Test A postemergence, pigweed; conditions: for Plant response rating, Pigweed: postemergence, 0 to 100 scale, 0 is no effect, 100 is complete control, approximately 10 days
Outline: (§1)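 Visual injury rating versus untreated controls on a 0 to 100 scale (0 = no effect, 100 = complete control), taken about 10 days after treatment in the greenhouse. Preemergence: directed soil spray over seeded loam–sand. Postemergence: spray on one- to two-leaf plants, 2 to 10 cm tall.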

[2] = system: barnyardgrass (Echinochloa crus-galli); assay: Test A postemergence, barnyardgrass; conditions: for Plant response rating, Barnyardgrass: postemergence, 0 to 100 scale, 0 is no effect, 100 is complete control, approximately 10 days
Outline: as §1

[3] = system: barnyardgrass (Echinochloa crus-galli); assay: Test B flooded paddy test, barnyardgrass
Outline: (§2)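 Seedlings at the 2-leaf stage are flooded to 3 cm and treated via the paddy water. Greenhouse plants are compared with controls after 13 to 15 days and given a 0 (no effect) to 100 (complete control) rating.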

kochia (Kochia scoparia) [4] = assay: Test A preemergence, kochia; conditions: for Plant response rating, Kochia: Preemergence, 0 to 100 scale (0 no effect, 100 complete control)
Outline: as §1

[5] = system: foxtail, giant (giant foxtail, Setaria faberii); assay: Test A preemergence, giant foxtail; conditions: for Plant response rating, Foxtail, Giant: Preemergence, 0 to 100 scale (0 no effect, 100 complete control)
Outline: as §1

[6] = system: ragweed (common ragweed, Ambrosia elatior); assay: Test A postemergence, ragweed; conditions: for Plant response rating, Ragweed: postemergence, 0 to 100 scale, 0 is no effect, 100 is complete control, approximately 10 days
Outline: as §1

[7] = system: galium (catchweed bedstraw, Galium aparine); assay: Test A postemergence, galium; conditions: for Plant response rating, Galium: postemergence, 0 to 100 scale, 0 is no effect, 100 is complete control, approximately 10 days
Outline: as §1

corn (Zea mays) = assay: Test A postemergence, corn; conditions: for Plant response rating, Corn: postemergence, 0 to 100 scale, 0 is no effect, 100 is complete control, approximately 10 days
Outline: as §1

kochia (Kochia scoparia) [8] = assay: Test A postemergence, kochia; conditions: for Plant response rating, Kochia: postemergence, 0 to 100 scale, 0 is no effect, 100 is complete control, approximately 10 days
Outline: as §1

[9] = system: ragweed (common ragweed, Ambrosia elatior); assay: Test A preemergence, ragweed; conditions: for Plant response rating, Ragweed: Preemergence, 0 to 100 scale (0 no effect, 100 complete control)
Outline: as §1

[10] = system: foxtail, giant (giant foxtail, Setaria faberii); assay: Test A postemergence, giant foxtail; conditions: for Plant response rating, Foxtail, Giant: postemergence, 0 to 100 scale, 0 is no effect, 100 is complete control, approximately 10 days
Outline: as §1

[11] = system: wheat (Triticum aestivum); assay: Test A postemergence, wheat; conditions: for Plant response rating, Wheat: postemergence, 0 to 100 scale, 0 is no effect, 100 is complete control, approximately 10 days
Outline: as §1

[12] = system: sedge, umbrella (small-flower umbrella sedge, Cyperus difformis); assay: Test B flooded paddy test, umbrella sedge
Outline: as §2

[13] = system: ryegrass, Italian (Italian ryegrass, Lolium multiflorum); assay: Test A postemergence, Italian ryegrass; conditions: for Plant response rating, Ryegrass, Italian: postemergence, 0 to 100 scale, 0 is no effect, 100 is complete control, approximately 10 days
Outline: as §1

rice (Oryza sativa) = assay: Test B flooded paddy test, rice
Outline: as §2

[14] = system: ducksalad (Heteranthera limosa); assay: Test B flooded paddy test, ducksalad
Outline: as §2

[15] = system: pigweed (Amaranthus retroflexus); assay: Test A preemergence, pigweed; conditions: for Plant response rating, Pigweed: Preemergence, 0 to 100 scale (0 no effect, 100 complete control)
Outline: as §1

[16] = system: blackgrass (Alopecurus myosuroides); assay: Test A postemergence, blackgrass; conditions: for Plant response rating, Blackgrass: postemergence, 0 to 100 scale, 0 is no effect, 100 is complete control, approximately 10 days
Outline: as §1

[17] = system: barnyardgrass (Echinochloa crus-galli); assay: Test A preemergence, barnyardgrass; conditions: for Plant response rating, Barnyardgrass: Preemergence, 0 to 100 scale (0 no effect, 100 complete control)
Outline: as §1

[18] = system: ryegrass, Italian (Italian ryegrass, Lolium multiflorum); assay: Test A preemergence, Italian ryegrass; conditions: for Plant response rating, Ryegrass, Italian: Preemergence, 0 to 100 scale (0 no effect, 100 complete control)
Outline: as §1

[19] = 250 g ai/ha, Flood, visual rating after 13 to 15 days, scale 0 to 100, 0 is no effect, 100 is complete control
[20] = Amaranthus retroflexus, post-emergence, 240 h, read-out: Plant response rating, Pigweed
[21] = Echinochloa crus-galli, post-emergence, 240 h, read-out: Plant response rating, Barnyardgrass
[22] = Bassia scoparia, pre-emergence, 240 h, read-out: Plant response rating, Kochia
[23] = Setaria faberi, pre-emergence, 240 h, read-out: Plant response rating, Foxtail, Giant
[24] = Ambrosia artemisiifolia, post-emergence, 240 h, read-out: Plant response rating, Ragweed
[25] = Galium, post-emergence, 240 h, read-out: Plant response rating, Galium
[26] = Zea mays, post-emergence, 240 h, read-out: Plant response rating, Corn
[27] = Bassia scoparia, post-emergence, 240 h, read-out: Plant response rating, Kochia
[28] = Ambrosia artemisiifolia, pre-emergence, 240 h, read-out: Plant response rating, Ragweed
[29] = Setaria faberi, post-emergence, 240 h, read-out: Plant response rating, Foxtail, Giant
[30] = Triticum aestivum, post-emergence, 240 h, read-out: Plant response rating, Wheat
[31] = Lolium multiflorum, post-emergence, 240 h, read-out: Plant response rating, Ryegrass, Italian
[32] = Amaranthus retroflexus, pre-emergence, 240 h, read-out: Plant response rating, Pigweed
[33] = Alopecurus myosuroides, post-emergence, 240 h, read-out: Plant response rating, Blackgrass
[34] = Echinochloa crus-galli, pre-emergence, 240 h, read-out: Plant response rating, Barnyardgrass
[35] = Lolium multiflorum, pre-emergence, 240 h, read-out: Plant response rating, Ryegrass, Italian

FC(F)(F)CCOc1c(Cl)cccc1Oc1ncc(Cl)cn1 [Compound 43]
Plant response rating, Pigweed ([1]; 31 g ai/ha): 50
Plant response rating, Pigweed ([1]; 125 g ai/ha): 90
Plant response rating, Barnyardgrass ([2]; 31 g ai/ha): 0
Plant response rating, Barnyardgrass ([2]; 125 g ai/ha): 30
Plant response rating, Barnyardgrass [3, 19]: 0
Plant response rating, Kochia (kochia (Kochia scoparia) [4]; 31 g ai/ha): 0
Plant response rating, Kochia (kochia (Kochia scoparia) [4]; 125 g ai/ha): 90
Plant response rating, Foxtail, Giant ([5]; 31 g ai/ha): 10
Plant response rating, Foxtail, Giant ([5]; 125 g ai/ha): 100
Plant response rating, Ragweed ([6]; 31 g ai/ha): 0
Plant response rating, Ragweed ([6]; 125 g ai/ha): 0
Plant response rating, Galium ([7]; 31 g ai/ha): 20
Plant response rating, Galium ([7]; 125 g ai/ha): 60
Plant response rating, Corn (corn (Zea mays); 31 g ai/ha): 10
Plant response rating, Corn (corn (Zea mays); 125 g ai/ha): 10
Plant response rating, Kochia (kochia (Kochia scoparia) [8]; 31 g ai/ha): 30
Plant response rating, Kochia (kochia (Kochia scoparia) [8]; 125 g ai/ha): 80
Plant response rating, Ragweed ([9]; 31 g ai/ha): 0
Plant response rating, Ragweed ([9]; 125 g ai/ha): 0
Plant response rating, Foxtail, Giant ([10]; 31 g ai/ha): 10
Plant response rating, Foxtail, Giant ([10]; 125 g ai/ha): 40
Plant response rating, Wheat ([11]; 31 g ai/ha): 0
Plant response rating, Wheat ([11]; 125 g ai/ha): 0
Plant response rating, Sedge, Umbrella [12, 19]: 90
Plant response rating, Ryegrass, Italian ([13]; 31 g ai/ha): 0
Plant response rating, Ryegrass, Italian ([13]; 125 g ai/ha): 0
Plant response rating, Rice (rice (Oryza sativa); [19]): 50
Plant response rating, Ducksalad [14, 19]: 100
Plant response rating, Pigweed ([15]; 31 g ai/ha): 40
Plant response rating, Pigweed ([15]; 125 g ai/ha): 100
Plant response rating, Blackgrass ([16]; 31 g ai/ha): 0
Plant response rating, Blackgrass ([16]; 125 g ai/ha): 30
Plant response rating, Barnyardgrass ([17]; 31 g ai/ha): 20
Plant response rating, Barnyardgrass ([17]; 125 g ai/ha): 70
Plant response rating, Ryegrass, Italian ([18]; 31 g ai/ha): 0
Plant response rating, Ryegrass, Italian ([18]; 125 g ai/ha): 10

FC(F)(F)C(F)(F)C(F)(F)COc1c(Br)cccc1Oc1ncc(Cl)cn1 [Compound 52, 2-[3-bromo-2-(2,2,3,3,4,4,4-heptafluorobutoxy)phenoxy]-5-chloropyrimidine]
pest or weed control at 125 g/ha [1, 20]: 80%
pest or weed control at 500 g/ha [1, 20]: 100%
pest or weed control at 125 g/ha [2, 21]: 10%
pest or weed control at 500 g/ha [2, 21]: 80%
pest or weed control at 250 g/ha ([3]; Echinochloa crus-galli, read-out: Plant response rating, Barnyardgrass): 0%
pest or weed control at 125 g/ha (kochia (Kochia scoparia) [4]; [22]): 0%
pest or weed control at 500 g/ha (kochia (Kochia scoparia) [4]; [22]): 40%
pest or weed control at 125 g/ha [5, 23]: 80%
pest or weed control at 500 g/ha [5, 23]: 100%
pest or weed control at 125 g/ha [6, 24]: 20%
pest or weed control at 500 g/ha [6, 24]: 30%
pest or weed control at 125 g/ha [7, 25]: 40%
pest or weed control at 500 g/ha [7, 25]: 90%
plant injury at 125 g/ha (corn (Zea mays); [26]): 10%
plant injury at 500 g/ha (corn (Zea mays); [26]): 30%
pest or weed control at 125 g/ha (kochia (Kochia scoparia) [8]; [27]): 70%
pest or weed control at 500 g/ha (kochia (Kochia scoparia) [8]; [27]): 90%
pest or weed control at 125 g/ha [9, 28]: 0%
pest or weed control at 500 g/ha [9, 28]: 0%
pest or weed control at 125 g/ha [10, 29]: 20%
pest or weed control at 500 g/ha [10, 29]: 80%
plant injury at 125 g/ha [11, 30]: 0%
plant injury at 500 g/ha [11, 30]: 20%
pest or weed control at 250 g/ha ([12]; Cyperus difformis, read-out: Plant response rating, Sedge, Umbrella): 90%
pest or weed control at 125 g/ha [13, 31]: 20%
pest or weed control at 500 g/ha [13, 31]: 40%
plant injury at 250 g/ha (rice (Oryza sativa); Oryza sativa, read-out: Plant response rating, Rice): 15%
pest or weed control at 250 g/ha ([14]; Heteranthera limosa, read-out: Plant response rating, Ducksalad): 75%
pest or weed control at 125 g/ha [15, 32]: 70%
pest or weed control at 500 g/ha [15, 32]: 100%
pest or weed control at 125 g/ha [16, 33]: 10%
pest or weed control at 500 g/ha [16, 33]: 20%
pest or weed control at 125 g/ha [17, 34]: 30%
pest or weed control at 500 g/ha [17, 34]: 50%
pest or weed control at 125 g/ha [18, 35]: 10%
pest or weed control at 500 g/ha [18, 35]: 50%
